Read-outs that look alike come from different tables or passages of the source.

The subject of the experiment is human umbilical vein endothelial cells (HUVEC). Nature of the experiment: HUVEC proliferation assay (VEGF-stimulated, MTT).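 As to % inhibition of the proliferation of HUVEC: relative to VEGF-stimulated control minus starvation-medium baseline.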 In kind it is cell-based. As to conditions: for % inhibition of the proliferation of HUVEC / % inhibition: crude reaction mixtures; for % inhibition: Library III, HUVEC proliferation, nominal concentration of 0.5 nM; for IC50: + albumin, read-out: HUVEC + albumin IC50. Here is the method:
HUVEC Proliferation Assay
This assay determines the ability of a test compound to inhibit the growth factor-stimulated proliferation of human umbilical vein endothelial cells (“HUVEC”). HUVEC cells (passage 3-4, Clonetics, Corp.) were thawed into EGM2 culture medium (Clonetics Corp) in T75 flasks. Fresh EGM2 medium was added to the flasks 24 hours later. Four or five days later, cells were exposed to another culture medium (F12K medium supplemented with 10% fetal bovine serum (FBS), 60 μg/mL endothelial cell growth supplement (ECGS), and 0.1 mg/mL heparin). Exponentially-growing HUVEC cells were used in experiments thereafter. Ten to twelve thousand HUVEC cells were plated in 96-well dishes in 100 μl of rich, culture medium (described above). The cells were allowed to attach for 24 hours in this medium. The medium was then removed by aspiration and 105 μl of starvation media (F12K+1% FBS) was added to each well. After 24 hours, 15 μl of test agent dissolved in 1% DMSO in starvation medium or this vehicle alone was added into each treatment well; the final DMSO concentration was 0.1%. One hour later, 30 μl of VEGF (30 ng/mL) in starvation media was added to all wells except those containing untreated controls; the final VEGF concentration was 6 ng/mL. Cellular proliferation was quantified 72 hours later by MTT dye reduction, at which time cells were exposed for 4 hours MTT (Promega Corp.).
For screening compound library plates, one or two concentrations (one well per concentration) were employed, and the % inhibition was calculated by the following formula:
% inhibition=(control−test)÷(control−starvation)
% inhibition=(control-treated)/(control-starvation)×100

Where [1] appears, read: Library II, Y=S, 0.5 mM (column head; text: nominal 0.5 nM).
The mark [2] stands for this setting: Library II, Y=S, 2 mM (column head; text: nominal 2 nM).
[3] abbreviates: Library I, Y = CO, nominal concentration of 10 nM.
[4] abbreviates: Library I, Y = NH, nominal concentration of 10 nM.
The mark [5] stands for this setting: Library I, Y = O, nominal concentration of 10 nM.

For `O=C(NC1CCN(Cc2ccccc2)CC1)c1ccccc1Sc1ccc2c(/C=C/c3ccccn3)n[nH]c2c1`, the “% inhibition of the proliferation of HUVEC” value (“% inhibition … of HUVEC” below) worked out at 44% under setting [1] and 19% under setting [2].

Broadly, the % inhibition is the change of the read-out against control, counted positive when it falls. With `CCOC(=O)c1ccc(NC(=O)c2ccccc2Sc2ccc3c(/C=C/c4ccccn4)n[nH]c3c2)cc1`, the “% inhibition” value is on record as −25%.

As for `C=CCN1CCN(C(=O)c2ccc3c(-c4nc5ccccc5[nH]4)n[nH]c3c2)CC1`, the “% inhibition … of HUVEC” value is reported as 39% under setting [3] and −4% under setting [4].

Consider `C#CCNC(=O)c1ccccc1Sc1ccc2c(/C=C/c3ccccn3)n[nH]c2c1` [drawing 1123], for which the “% inhibition” value came to 9%.

Turning to `O=C(NCc1ccc(F)cc1F)c1ccccc1Sc1ccc2c(/C=C/c3ccccn3)n[nH]c2c1`, the “% inhibition” value came out at 11%.

On to `O=C(c1ccc2c(-c3nc4ccccc4[nH]3)n[nH]c2c1)N1CCCC1`, for which the “% inhibition … of HUVEC” value is, setting by setting: under setting [3], 8%; under setting [4], 0%; under setting [5], 23%.

With `O=C(Nc1ccccc1-c1ccccc1)c1ccccc1Sc1ccc2c(/C=C/c3ccccn3)n[nH]c2c1`, the “% inhibition” value turned out to be 1%.

As to `O=C(Nc1ccc(O)cc1)c1ccccc1Sc1ccc2c(/C=C/c3ccccn3)n[nH]c2c1`, the “% inhibition” value came out at 52%.

As to `CC(C)(C)C1CCC(NC(=O)c2ccccc2Sc2ccc3c(/C=C/c4ccccn4)n[nH]c3c2)CC1` (stereo not shown), the “% inhibition” value came out at 0%.

For `CSc1ccc(NC(=O)c2ccccc2Sc2ccc3c(/C=C/c4ccccn4)n[nH]c3c2)cc1`, the “% inhibition” value is given as −7%.

As for `CCCCCCNC(=O)c1ccccc1Sc1ccc2c(/C=C/c3ccccn3)n[nH]c2c1`, the “% inhibition … of HUVEC” value under setting [1] came out at 21% and the “% inhibition … of HUVEC” value under setting [2] was found to be 90%.

As for `COC(CCCNC(=O)c1ccccc1Sc1ccc2c(/C=C/c3ccccn3)n[nH]c2c1)OC`, the “% inhibition” value amounted to 9%.

On to `Cc1ccc2ccccc2c1NC(=O)c1ccccc1Sc1ccc2c(/C=C/c3ccccn3)n[nH]c2c1`, for which the “% inhibition” value was −19%.

Consider `CC1CN(C(=O)c2ccc3c(-c4nc5ccccc5[nH]4)n[nH]c3c2)CC(C)O1` (stereo not shown), for which the “% inhibition … of HUVEC” value reads like this: under setting [3], 21%; under setting [4], 7%; under setting [5], 40%.

Regarding `CCCC(CO)NC(=O)c1ccccc1Sc1ccc2c(/C=C/c3ccccn3)n[nH]c2c1` (stereo not shown), the “% inhibition … of HUVEC” value is recorded as 44% under setting [1] and 40% under setting [2].

With `O=C(Nc1ccc(Cl)cc1)c1ccccc1Sc1ccc2c(/C=C/c3ccccn3)n[nH]c2c1`, the “% inhibition” value is given as −12%.

Take `CC(=O)c1cccc(NC(=O)c2ccccc2Sc2ccc3c(/C=C/c4ccccn4)n[nH]c3c2)c1`: the “% inhibition” value came to 5%.

Take `CC(C)(C)c1cc(NC(=O)c2ccccc2Sc2ccc3c(/C=C/c4ccccn4)n[nH]c3c2)n[nH]1`: the “% inhibition” value was −21%.

For `O=C(NC1CCCCC1O)c1ccccc1Sc1ccc2c(/C=C/c3ccccn3)n[nH]c2c1` (stereo not shown), the “% inhibition” value is reported as −6%.

Turning to `O=C(Nc1cccnc1)c1ccccc1Sc1ccc2c(/C=C/c3ccccn3)n[nH]c2c1`, the “% inhibition” value was −2%.

`O=C(Nc1ccc(O)c(F)c1)c1ccccc1Sc1ccc2c(/C=C/c3ccccn3)n[nH]c2c1`: the “% inhibition” value is reported as −10%.

As to `O=C(NCCCCCO)c1ccccc1Sc1ccc2c(/C=C/c3ccccn3)n[nH]c2c1`, the “% inhibition” value is reported as −2%.

As to `CC(C)(C)c1csc(NC(=O)c2ccccc2Sc2ccc3c(/C=C/c4ccccn4)n[nH]c3c2)n1`, the “% inhibition” value is recorded as −6%.

For the molecule `O=C(NC1CCCCC1C1CCCCC1)c1ccccc1Sc1ccc2c(/C=C/c3ccccn3)n[nH]c2c1` (stereo not shown), the “% inhibition” value turned out to be 11%.

Turning to `N#CCNC(=O)c1ccccc1Sc1ccc2c(/C=C/c3ccccn3)n[nH]c2c1`, the “% inhibition … of HUVEC” value is, setting by setting: under setting [1], 18%; under setting [2], 40%.

Turning to `O=C(Nc1cccc(C(F)(F)F)c1)c1ccccc1Sc1ccc2c(/C=C/c3ccccn3)n[nH]c2c1`, the “% inhibition” value worked out at 4%.

Consider `CC(C)c1ccccc1NC(=O)c1ccccc1Sc1ccc2c(/C=C/c3ccccn3)n[nH]c2c1`, for which the “% inhibition” value is listed as −30%.

For `CC(C)(C)CNC(=O)c1ccccc1Sc1ccc2c(/C=C/c3ccccn3)n[nH]c2c1` [drawing 687], the “% inhibition … of HUVEC” value under setting [1] was 5% and the “% inhibition … of HUVEC” value under setting [2] is recorded as −6%.

As for `O=C(NCCCCCCO)c1ccccc1Sc1ccc2c(/C=C/c3ccccn3)n[nH]c2c1`, the “% inhibition” value is on record as −20%.

For the molecule `Cc1nc(NC(=O)c2ccccc2Sc2ccc3c(/C=C/c4ccccn4)n[nH]c3c2)n[nH]1`, the “% inhibition” value is reported as 0%.

`CCN1CC(NC(=O)c2ccccc2Sc2ccc3c(/C=C/c4ccccn4)n[nH]c3c2)CN1CC`: the “% inhibition … of HUVEC” value runs as follows: under setting [1], 2%; under setting [2], −19%.

As for `O=C(NCc1ccc2c(c1)CCO2)c1ccccc1Sc1ccc2c(/C=C/c3ccccn3)n[nH]c2c1`, the “% inhibition” value is 14%.

Turning to `CCOCCCNC(=O)c1ccccc1Sc1ccc2c(/C=C/c3ccccn3)n[nH]c2c1`, the “% inhibition … of HUVEC” value is on record as 44% under setting [1] and 97% under setting [2].

As to `CC(NC(=O)c1ccccc1Sc1ccc2c(/C=C/c3ccccn3)n[nH]c2c1)c1ccc(F)cc1` (stereo not shown), the “% inhibition” value was determined as 2%.

As to `O=C(Nc1ccc(O)c(Cl)c1)c1ccccc1Sc1ccc2c(/C=C/c3ccccn3)n[nH]c2c1`, the “% inhibition” value was −19%.

Consider `O=C(NCc1cc(F)ccc1F)c1ccccc1Sc1ccc2c(/C=C/c3ccccn3)n[nH]c2c1`, for which the “% inhibition” value came to 15%.

Consider `Cc1cccc(C)c1NC(=O)c1ccccc1Sc1ccc2c(/C=C/c3ccccn3)n[nH]c2c1`, for which the “% inhibition” value is −20%.

Regarding `Cc1ccc(CNC(=O)c2ccccc2Sc2ccc3c(/C=C/c4ccccn4)n[nH]c3c2)cc1C`, the “% inhibition” value is given as −6%.

In the case of `CSCCC(CO)NC(=O)c1ccccc1Sc1ccc2c(/C=C/c3ccccn3)n[nH]c2c1` (stereo not shown), the “% inhibition” value is recorded as −45%.

On to `CCOc1ccc(NC(=O)c2ccccc2Sc2ccc3c(/C=C/c4ccccn4)n[nH]c3c2)cc1`, for which the “% inhibition” value is recorded as 16%.

Consider `O=C(NCCS(=O)(=O)O)c1ccccc1Sc1ccc2c(/C=C/c3ccccn3)n[nH]c2c1`, for which the “% inhibition … of HUVEC” value by setting is: under setting [1], 16%; under setting [2], 21%.

As for `CN(CCO)C(=O)c1ccc2c(-c3nc4ccccc4[nH]3)n[nH]c2c1`, the “% inhibition … of HUVEC” value is reported as 27% under setting [3], −8% under setting [4] and 48% under setting [5].

Consider `O=C(NC1CCCc2ccccc21)c1ccccc1Sc1ccc2c(/C=C/c3ccccn3)n[nH]c2c1` (stereo not shown), for which the “% inhibition” value turned out to be 1%.

As to `O=C(Nc1ncnc2[nH]ncc12)c1ccccc1Sc1ccc2c(/C=C/c3ccccn3)n[nH]c2c1`, the “% inhibition” value is listed as 4%.

Regarding `O=C(NCCc1ccccc1F)c1ccccc1Sc1ccc2c(/C=C/c3ccccn3)n[nH]c2c1`, the “% inhibition” value came out at 2%.

Take `CC(NC(=O)c1ccccc1Sc1ccc2c(/C=C/c3ccccn3)n[nH]c2c1)c1ccc(Cl)cc1` (stereo not shown): the “% inhibition” value turned out to be 14%.

Turning to `O=C(Nc1ccc2[nH]ncc2c1)c1ccccc1Sc1ccc2c(/C=C/c3ccccn3)n[nH]c2c1`, the “% inhibition” value stood at 22%.

In the case of `N#CCONC(=O)c1ccccc1Sc1ccc2c(/C=C/c3ccccn3)n[nH]c2c1`, the “% inhibition … of HUVEC” value runs as follows: under setting [1], 16%; under setting [2], 2%.

With `Cc1ccc(CNC(=O)c2ccccc2Sc2ccc3c(/C=C/c4ccccn4)n[nH]c3c2)o1` [drawing 763], the “% inhibition … of HUVEC” value reads like this: under setting [1], 56%; under setting [2], 96%.

A word on the IC50: it is the midpoint of a concentration-inhibition curve. Consider `O=C(N/N=C/C(F)(F)F)c1ccccc1Sc1ccc2c(/C=C/c3ccccn3)n[nH]c2c1` [Example 36(c)], for which the IC50 (Homo sapiens, HUVEC) was more than 0.03 µM.

`COc1ccc(CCNC(=O)c2ccccc2Sc2ccc3c(/C=C/c4ccccn4)n[nH]c3c2)cc1OC`: the “% inhibition” value was −3%.

Take `Cc1cc(NC(=O)c2ccccc2Sc2ccc3c(/C=C/c4ccccn4)n[nH]c3c2)on1`: the “% inhibition … of HUVEC” value worked out at 26% under setting [1] and 31% under setting [2].

Take `O=C(NC(CO)CO)c1ccccc1Sc1ccc2c(/C=C/c3ccccn3)n[nH]c2c1`: the “% inhibition … of HUVEC” value was found to be 48% under setting [1] and 8% under setting [2].

Regarding `O=C(c1ccc2c(-c3nc4ccccc4[nH]3)n[nH]c2c1)N1CCCC(CO)C1` (stereo not shown), the “% inhibition … of HUVEC” value runs as follows: under setting [3], 96%; under setting [4], 6%; under setting [5], 134%.

For the molecule “6-(3-Benzamidobenzoyl)-3-E-[N-(4H-1,2,4-triazol-4-yl)iminomethyl]-1H-indazole [Example 42(e)]”, the concentration for half-maximal inhibition (IC50) was found to be 0.095 µM.

These data come from US6534524B1, “Indazole compounds and pharmaceutical compositions for inhibiting protein kinases, and methods for their use” (Agouron Pharmaceuticals, Inc., priority 1999, dated 2003).
